Test results reported in patent US8916702B2 (priority 2012, dated 2014).
Where two headings read alike, the source gives them in different places.

Tested on: HCV pseudoparticles (genotype 1a HCV E1 and E2 envelope, H77C isolate)
Assay: microbe, parasite or virus in culture
Assay type: cell-based
Settings: Hepatitis C virus
[1] = Huh-7, read-out: Activity (EC50 class), HCV pseudoparticles (genotype 1a, H77C) in Huh7 cells, EC50 expressed as class A/B
[2] = Huh-7, 48 h, read-out: Activity (EC50 class), HCV pseudoparticle infection of Huh7 cells, luciferase 2 days after infection, EC50 expressed as class A/B
[3] = Huh-7, 48 h, HCV pseudoparticles, Huh7 cells, luciferase 2 days after infection, average of duplicates
[4] = Huh-7, 48 h, read-out: Activity (EC50 class), HCV pseudoparticles, Huh7 cells, luciferase 2 days after infection, average of duplicates
[5] = Huh-7, 48 h, HCV pseudoparticles (genotype 1a, H77C) in Huh7 cells, average of duplicate, luciferase 2 days after infection
[6] = Huh-7, 48 h, HCV pseudoparticle infection of Huh7 cells, luciferase 2 days after infection, average of duplicates

SMILES | EC50 [1] | EC50 [2] | also measured
COc1cc(F)ccc1NC(=O)C(=O)NCC(C)(C)CNC(=O)c1ccc(Nc2nc(NC3(c4ccc(Cl)cc4)CC3)nc(OCC(F)(F)F)n2)cc1 [Compound 3075] | 0.01 to 10 nM | – | –
COC(=O)[C@@H](CCNC(=O)C(=O)NCC1(CN2CCCC2)CC1)NC(=O)c1ccc(Nc2nc(NC3(c4ccc(Cl)cc4)CC3)nc(OCC(F)(F)F)n2)cc1 [Compound 1384] | – | 0.01 to 10 nM | –
CC(C)(CNC(=O)C(=O)Nc1nc2ccc(Cl)cc2s1)CNC(=O)c1ccc(Nc2nc(NC3(c4ccc(Cl)cc4)CC3)nc(OCC(F)(F)F)n2)cc1 [Compound 3807] | – | – | EC50 [3]: 0.28 nM; EC50 [4]: 0.01 to 10 nM
COC(=O)[C@H](CNC(=O)C(=O)Nc1ccc(N2CCCC2)nc1)NC(=O)c1ccc(Nc2nc(NC3(c4ccc(Cl)cc4)CC3)nc(OCC(F)(F)F)n2)cc1 [Compound 3721] | – | – | EC50 [4]: 0.01 to 10 nM
COC(=O)[C@H](CNC(=O)C(=O)Nc1ccc(-c2ccc(C)cc2)cc1)NC(=O)c1ccc(Nc2nc(NC3(c4ccc(Cl)cc4)CC3)nc(OCC(F)(F)F)n2)cc1 [Compound 3188] | 0.01 to 10 nM | – | –
COC(=O)[C@H](CNC(=O)C(=O)NCC1CCCCC1)NC(=O)c1ccc(Nc2nc(NC3(c4ccc(Cl)cc4)CC3)nc(OCC(F)(F)F)n2)cc1 [Compound 1149] | – | 0.01 to 10 nM | –
CNC(=O)C(=O)NCC[C@H](NC(=O)c1ccc(Nc2nc(NC3(c4ccc(Cl)cc4)CC3)nc(OCC(F)(F)F)n2)cc1)C(=O)OC [Compound 1010, (S)-methyl 2-(4-(4-(1-(4-chlorophenyl)cyclopropylamino)-6-(2,2,2-trifluoroethoxy)-1,3,5-triazin-2-ylamino)benzamido)-4-(2-(methylamino)-2-oxoacetamido)butanoate] | – | 0.01 to 10 nM | –
Cc1ccc(NC(=O)C(=O)N2CCCC(CNC(=O)c3ccc(Nc4nc(NC5(c6ccc(Cl)cc6)CC5)nc(OCC(F)(F)F)n4)cc3)C2)cc1 (stereo not drawn) [Compound 3481] | 0.01 to 10 nM | – | EC50 [5]: 0.065 nM
Cc1ccc(NC(=O)C(=O)NCC(C)(C)CNC(=O)c2ccc(Nc3nc(NC4(c5ccc(Cl)cc5)CC4)nc(OCc4ccc(F)cc4)n3)cc2)cc1 [Compound 3845] | – | – | EC50 [3]: 0.022 nM; EC50 [4]: 0.01 to 10 nM
COC(=O)[C@H](CCNC(=O)C(=O)NC1CCCCCC1)NC(=O)c1ccc(Nc2nc(NC3(c4ccc(Cl)cc4)CC3)nc(OCC(F)(F)F)n2)cc1 [Compound 1141] | – | 0.01 to 10 nM | –
Cc1ccc(NC(=O)C(=O)NCCCNC(=O)c2ccc(Nc3nc(NC4(c5ccc(Cl)cc5)CC4)nc(OCC(F)(F)F)n3)cc2)cc1 [Compound 3358] | 0.01 to 10 nM | – | EC50 [5]: 0.034 nM
O=C(NCCC(NC(=O)c1ccc(Nc2nc(NC3(c4ccc(Cl)cc4)CC3)nc(OCC(F)(F)F)n2)cc1)C(=O)O)C(=O)Nc1ccc(OCCc2ncccn2)cc1 (stereo not drawn) [Compound 3536] | 0.01 to 10 nM | – | –
COC(=O)[C@H](CCNC(=O)C(=O)Nc1ccc(-c2ncco2)cc1)NC(=O)c1ccc(Nc2nc(NC3(c4ccc(Cl)cc4)CC3)nc(OCC(F)(F)F)n2)cc1 [Compound 3326] | 0.01 to 10 nM | – | –
CC(C)(CNC(=O)C(=O)Nc1cccc2c1Cc1ccccc1-2)CNC(=O)c1ccc(Nc2nc(NC3(c4ccc(Cl)cc4)CC3)nc(OCC(F)(F)F)n2)cc1 [Compound 3356] | 0.01 to 10 nM | – | –
COC(=O)[C@H](CNC(=O)C(=O)Nc1cccc(C(=O)c2ccccc2)c1)NC(=O)c1ccc(Nc2nc(NC3(c4ccc(Cl)cc4)CC3)nc(OCC(F)(F)F)n2)cc1 [Compound 3692] | – | – | EC50 [4]: 0.01 to 10 nM
CNC(=O)CCc1ccc(NC(=O)C(=O)NCC(C)(C)CNC(=O)c2ccc(Nc3nc(NC4(c5ccc(Cl)cc5)CC4)nc(OCC(F)(F)F)n3)cc2)cc1 [Compound 3025] | 0.01 to 10 nM | – | –
CC(C)(Cc1ccc(F)cc1)NC(=O)C(=O)NCC[C@H](NC(=O)c1ccc(Nc2nc(NC3(c4ccc(Cl)cc4)CC3)nc(OCC(F)(F)F)n2)cc1)C(=O)O [Compound 1340] | – | 0.01 to 10 nM | EC50 [6]: 0.1 nM
O=C(NCC[C@H](NC(=O)c1ccc(Nc2nc(NC3(c4ccc(Cl)cc4)CC3)nc(OCC(F)(F)F)n2)cc1)C(=O)O)C(=O)NCC1CC1c1cc(F)ccc1F (stereo partly drawn) [Compound 1442] | – | 0.01 to 10 nM | –
CC(C)(CNC(=O)C(=O)Nc1nc2c(F)cccc2s1)CNC(=O)c1ccc(Nc2nc(NC3(c4ccc(Cl)cc4)CC3)nc(OCC(F)(F)F)n2)cc1 [Compound 3824] | – | – | EC50 [3]: 0.077 nM; EC50 [4]: 0.01 to 10 nM
O=C(NC[C@H](NC(=O)c1ccc(Nc2nc(NC3(c4ccc(Cl)cc4)CC3)nc(OCC(F)(F)F)n2)cc1)C(=O)Cl)C(=O)Nc1cccc(-n2cnnc2)c1 [Compound 3784] | – | – | EC50 [4]: 0.01 to 10 nM
CN1CCCC1CCNC(=O)C(=O)NC[C@H](NC(=O)c1ccc(Nc2nc(NC3(c4ccc(Cl)cc4)CC3)nc(OCC(F)(F)F)n2)cc1)C(=O)O (stereo partly drawn) [Compound 1040] | – | 10 to 1000 nM | –
CC(C)(CNC(=O)C(=O)Nc1cccnc1-c1ccccc1)CNC(=O)c1ccc(Nc2nc(NC3(c4ccc(Cl)cc4)CC3)nc(OCC(F)(F)F)n2)cc1 [Compound 3258] | 0.01 to 10 nM | – | –

SMILES | EC50 [1] | EC50 [2] | also measured
CC(C)(CNC(=O)C(=O)Nc1c(F)cc(F)cc1F)CNC(=O)c1ccc(Nc2nc(NC3(c4ccc(Cl)cc4)CC3)nc(OCC(F)(F)F)n2)cc1 [Compound 3416] | 0.01 to 10 nM | – | –
COC(=O)[C@H](CNC(=O)C(=O)Nc1ccc(OCCN(C)C)nc1)NC(=O)c1ccc(Nc2nc(NC3(c4ccc(Cl)cc4)CC3)nc(OCC(F)(F)F)n2)cc1 [Compound 3735] | – | – | EC50 [4]: 0.01 to 10 nM
O=C(NCC[C@H](NC(=O)c1ccc(Nc2nc(NC3(c4ccc(Cl)cc4)CC3)nc(OCC(F)(F)F)n2)cc1)C(=O)O)C(=O)Nc1ccc(Cl)nc1 [Compound 3611] | – | – | EC50 [4]: 0.01 to 10 nM
CCOC(=O)[C@H](CNC(=O)C(N)=O)NC(=O)c1ccc(Nc2nc(NC3(c4ccc(Cl)cc4)CC3)nc(OCC(F)(F)F)n2)cc1 [Compound 1025, (S)-ethyl 3-(2-amino-2-oxoacetamido)-2-(4-(4-(1-(4-chlorophenyl)cyclopropylamino)-6-(2,2,2-trifluoroethoxy)-1,3,5-triazin-2-ylamino)benzamido)propanoate] | – | 0.01 to 10 nM | EC50 [6]: 1.73 nM
O=C(NC[C@H](NC(=O)c1ccc(Nc2nc(NC3(c4ccc(Cl)cc4)CC3)nc(OCC(F)(F)F)n2)cc1)C(=O)O)C(=O)Nc1cccc(OC(F)(F)F)c1 [Compound 3749] | – | – | EC50 [4]: 0.01 to 10 nM
CC(C)(CNC(=O)C(=O)Nc1cccc(-c2nn[nH]n2)c1)CNC(=O)c1ccc(Nc2nc(NC3(c4ccc(Cl)cc4)CC3)nc(OCC(F)(F)F)n2)cc1 [Compound 1489] | – | 0.01 to 10 nM | –
COC(=O)[C@H](CNC(=O)C(=O)N[C@@H]1C[C@H]2C[C@@H]([C@H]1C)C2(C)C)NC(=O)c1ccc(Nc2nc(NC3(c4ccc(Cl)cc4)CC3)nc(OCC(F)(F)F)n2)cc1 [Compound 1069] | – | 0.01 to 10 nM | –
C[C@@H](NC(=O)C(=O)NC[C@H](NC(=O)c1ccc(Nc2nc(NC3(c4ccc(Cl)cc4)CC3)nc(OCC(F)(F)F)n2)cc1)C(=O)O)C1CCCCC1 [Compound 1476] | – | 0.01 to 10 nM | –
CCOC(=O)C(=O)NC[C@H](NC(=O)c1ccc(Nc2nc(NC3(c4ccc(Cl)cc4)CC3)nc(OCC(F)(F)F)n2)cc1)C(=O)OC [Compound 1001, (S)-methyl 2-(4-(4-(1-(4-chlorophenyl)cyclopropylamino)-6-(2,2,2-trifluoroethoxy)-1,3,5-triazin-2-ylamino)benzamido)-3-(2-ethoxy-2-oxoacetamido)propanoate] | – | 10 to 1000 nM | –
O=C(NCC[C@H](NC(=O)c1ccc(Nc2nc(NC3(c4ccc(Cl)cc4)CC3)nc(OCC(F)(F)F)n2)cc1)C(=O)O)C(=O)NCC1CCOCC1 [Compound 1215] | – | 0.01 to 10 nM | –
O=C(NCCCNC(=O)c1ccc(Nc2nc(NC3(c4ccc(Cl)cc4)CC3)nc(OCC(F)(F)F)n2)cc1)C(=O)NCc1ccc(F)cc1 [Compound 3357] | 0.01 to 10 nM | – | –
COC(=O)[C@H](CCNC(=O)C(=O)Nc1ccc(N2CCC(C(C)=O)CC2)cc1)NC(=O)c1ccc(Nc2nc(NC3(c4ccc(Cl)cc4)CC3)nc(OCC(F)(F)F)n2)cc1 [Compound 3303] | 0.01 to 10 nM | – | EC50 [5]: 5.59 nM
O=C(NCC(O)CNC(=O)c1ccc(Nc2nc(NC3(c4ccc(Cl)cc4)CC3)nc(OCC(F)(F)F)n2)cc1)C(=O)N1CCCCC1 (stereo not drawn) [Compound 3465] | 0.01 to 10 nM | – | –
O=C(NC[C@H](NC(=O)c1ccc(Nc2nc(NC3(c4ccc(Cl)cc4)CC3)nc(OCC(F)(F)F)n2)cc1)C(=O)O)C(=O)Nc1ccc(-n2cnnn2)cc1 [Compound 3276] | 0.01 to 10 nM | – | –
O=C(NCCC(NC(=O)c1ccc(Nc2nc(NC3(c4ccc(Cl)cc4)CC3)nc(OCC(F)(F)F)n2)cc1)C(=O)O)C(=O)Nc1ccc(-c2cc[nH]n2)cc1 (stereo not drawn) [Compound 3531] | 0.01 to 10 nM | – | –
O=C(NCCC(NC(=O)c1ccc(Nc2nc(NC3(c4ccc(Cl)cc4)CC3)nc(OCC(F)(F)F)n2)cc1)C(=O)O)C(=O)Nc1ccc(Cn2cccn2)cc1 (stereo not drawn) [Compound 3533] | 0.01 to 10 nM | – | –
O=C(NC1CCCCC1)C(=O)N(CCO)CCCNC(=O)c1ccc(Nc2nc(NC3(c4ccc(Cl)cc4)CC3)nc(OCC(F)(F)F)n2)cc1 [Compound 3510] | 0.01 to 10 nM | – | –
COC(=O)/C(CCNC(=O)C(=O)Nc1ccc(C(F)(F)F)nc1)=N\C(=O)c1ccc(Nc2nc(NC3(c4ccc(Cl)cc4)CC3)nc(OCC(F)(F)F)n2)cc1 [Compound 3594] | 0.01 to 10 nM | – | –
O=C(NCC[C@H](NC(=O)c1ccc(Nc2nc(NC3(c4ccc(Cl)cc4)CC3)nc(OCC(F)(F)F)n2)cc1)C(=O)O)C(=O)Nc1cccc(-c2ccncc2)c1 [Compound 3637] | – | – | EC50 [4]: 0.01 to 10 nM
Cc1cc(NC(=O)C(=O)NCC(C)(C)CNC(=O)c2ccc(Nc3nc(NC4(c5ccc(Cl)cc5)CC4)nc(OCC(F)(F)F)n3)cc2)no1 [Compound 1548] | – | 0.01 to 10 nM | –
COC(=O)[C@H](CNC(=O)C(=O)NCC1CCCOC1)NC(=O)c1ccc(Nc2nc(NC3(c4ccc(Cl)cc4)CC3)nc(OCC(F)(F)F)n2)cc1 (stereo partly drawn) [Compound 1458] | – | 0.01 to 10 nM | EC50 [6]: 3.2 nM
COC(=O)[C@H](CNC(=O)C(=O)Nc1ccc(C2CCCCC2)cc1)NC(=O)c1ccc(Nc2nc(NC3(c4ccc(Cl)cc4)CC3)nc(OCC(F)(F)F)n2)cc1 [Compound 3079] | 0.01 to 10 nM | – | EC50 [5]: 1.42 nM
